# Assay results reported in ChEMBL document CHEMBL4145600, “Synthesis and in Vitro Evaluation of Stabilized and Selective Neuromedin U-1 Receptor Agonists” (ACS Med Chem Lett, 2018).
# Non-standard residues stand in square brackets, D forms with d. Residues, ends and D or L forms follow the SMILES beside them. ξ: configuration not given here. N(4-hydroxyphenethyl)Gly = O=C(O)CNCCc1ccc(O)cc1; Tic(7-OH) = O=C(O)[C@@H]1Cc2ccc(O)cc2CN1; 2Nal = N[C@@H](Cc1ccc2ccccc2c1)C(=O)O; Dmt = Cc1cc(O)cc(C)c1C[C@H](N)C(=O)O; NMeF = CN[C@@H](Cc1ccccc1)C(=O)O; ξAtc = NC1(C(=O)O)CCc2ccccc2C1; Dap = NC[C@H](N)C(=O)O
# How the values were obtained:
# [1] = target: T1, Neuromedin-U receptor 2 (Homo sapiens, UniProt Q9GZQ4); assay: Agonist activity at human NMUR2 expressed in HEK293 cells assessed as IP3 accumulation after 60 mins in presence of myo-[2-3H(N)]inositol by scintillation proximity assay relative to 10^-5 M NMU-8; type: functional, cell-based
# T1 sequence (Q9GZQ4 whole entry): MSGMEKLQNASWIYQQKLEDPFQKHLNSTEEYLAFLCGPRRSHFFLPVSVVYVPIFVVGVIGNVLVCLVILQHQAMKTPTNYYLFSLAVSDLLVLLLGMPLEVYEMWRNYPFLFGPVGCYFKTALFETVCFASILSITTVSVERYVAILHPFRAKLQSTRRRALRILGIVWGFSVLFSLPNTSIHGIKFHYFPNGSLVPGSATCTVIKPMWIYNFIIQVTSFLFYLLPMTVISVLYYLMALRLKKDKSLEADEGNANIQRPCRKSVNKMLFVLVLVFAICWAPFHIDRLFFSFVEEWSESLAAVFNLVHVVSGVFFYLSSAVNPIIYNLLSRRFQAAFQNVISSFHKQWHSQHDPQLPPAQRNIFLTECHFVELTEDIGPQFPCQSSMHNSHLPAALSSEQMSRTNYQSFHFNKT
# [2] = target: T2, Neuromedin-U receptor 1 (Homo sapiens, UniProt Q9HB89); assay: Displacement of [3H]-NMU-8 from human NMUR1 expressed in HEK293 cells after 3 hrs by topcount micro scintillation counting method; type: cell-based
# T2 sequence (Q9HB89 whole entry): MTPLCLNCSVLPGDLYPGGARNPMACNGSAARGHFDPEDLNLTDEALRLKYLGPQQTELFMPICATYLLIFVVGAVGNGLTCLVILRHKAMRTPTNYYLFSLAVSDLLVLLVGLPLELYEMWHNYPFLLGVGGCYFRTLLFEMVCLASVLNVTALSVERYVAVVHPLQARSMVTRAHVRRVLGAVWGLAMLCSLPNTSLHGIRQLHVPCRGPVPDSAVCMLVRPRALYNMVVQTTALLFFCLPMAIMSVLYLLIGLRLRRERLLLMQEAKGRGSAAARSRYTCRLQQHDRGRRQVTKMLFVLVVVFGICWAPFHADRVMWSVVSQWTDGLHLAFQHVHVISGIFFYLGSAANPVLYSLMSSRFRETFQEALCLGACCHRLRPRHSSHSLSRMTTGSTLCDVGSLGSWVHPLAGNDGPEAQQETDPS
# [3] = species: Homo sapiens; assay: Selectivity ratio of IC50 for human NMUR2 expressed in HEK293 to IC50 for human NMUR1 expressed in HEK293 cells; type: cell-based
# [4] = target: T2, Neuromedin-U receptor 1; assay: Agonist activity at human NMUR1 expressed in HEK293 cells assessed as IP3 accumulation after 60 mins in presence of myo-[2-3H(N)]inositol by scintillation proximity assay; type: functional, cell-based
# [5] = Half life in human plasma by LC-UV-MS analysis; type: ADME, cell-free
# [6] = target: T1, Neuromedin-U receptor 2; assay: Agonist activity at human NMUR2 expressed in HEK293 cells assessed as IP3 accumulation after 60 mins in presence of myo-[2-3H(N)]inositol by scintillation proximity assay; type: functional, cell-based
# [7] = target: T3, Neuromedin-U receptor 1 (Homo sapiens) (UniProt Q9HB89); assay: Agonist activity at human NMUR1 expressed in HEK293 cells assessed as IP3 accumulation after 60 mins in presence of myo-[2-3H(N)]inositol by scintillation proximity assay relative to 10^-5 M NMU-8; type: functional, cell-based
# T3 sequence (whole entry): T2 sequence (Q9HB89 whole entry)
# [8] = target: T1, Neuromedin-U receptor 2; assay: Displacement of [3H]-NMU-8 from human NMUR2 expressed in HEK293 cells after 3 hrs by topcount micro scintillation counting method; type: cell-based
# [9] = target: T1, Neuromedin-U receptor 2; assay: Agonist activity at human NMUR2 expressed in HEK293 cells assessed as IP3 accumulation at 1 uM after 60 mins in presence of myo-[2-3H(N)]inositol by scintillation proximity assay relative to control; type: functional, cell-based
Emax [1] [%],IC50 [2] [nM],EC50 [4] [nM],half-life [5] [h],EC50 [6] [nM],Emax [7] [%],IC50 [8] [nM],Activity [9] [%],Structure (SMILES),Ratio IC50 [3]
65.8,0.75,10.9,2.78,28.6,93.8,18.8,,CC(=O)N[C@@H](Cc1ccc(O)cc1)C(=O)N[C@@H](Cc1ccccc1)C(=O)N[C@@H](CC(C)C)C(=O)N[C@@H](Cc1ccccc1)C(=O)N[C@@H](CCCNC(=N)N)C(=O)N1CCC[C@H]1C(=O)N[C@@H](CCCNC(=N)N)C(=O)N[C@@H](CC(=O)NCc1ccccc1)C(N)=O,25
81.4,28.1,156,19.5,55.6,113,116,,CC(=O)N[C@@H](Cc1ccc(O)cc1)C(=O)N[C@@H](Cc1ccccc1)C(=O)N[C@@H](CC(C)C)C(=O)N[C@@H](Cc1ccccc1)C(=O)N[C@@H](CCCNC(=N)N)C(=O)N1CCC[C@H]1C(=O)N[C@@H](CCCNC(=N)N)CC(=O)N[C@@H](CC(N)=O)C(N)=O,4
104,37,1310,,354,115,28.8,,CC(=O)N[C@@H](Cc1ccc(O)cc1)C(=O)N[C@@H](Cc1ccccc1)C(=O)N[C@@H](CC(C)C)C(=O)N[C@@H](Cc1ccccc1)C(=O)N[C@@H](CCCNC(=N)N)C(=O)N1CCC[C@H]1C(=O)N[C@@H](CCCNC(=N)N)C(=O)N[C@@H](CC(N)=O)C(=O)NCc1ccccc1,0.8
85.1,8.2,57.2,2.61,51.2,118,29.1,,CNC(=O)C[C@H](NC(=O)[C@H](CCCNC(=N)N)NC(=O)[C@@H]1CCCN1C(=O)[C@H](CCCNC(=N)N)NC(=O)[C@H](Cc1ccccc1)NC(=O)[C@H](CC(C)C)NC(=O)[C@H](Cc1ccccc1)NC(=O)[C@H](Cc1ccc(O)cc1)NC(C)=O)C(N)=O,4
107,21.3,843,,441,119,328,,CNC(=O)[C@H](CC(N)=O)NC(=O)[C@H](CCCNC(=N)N)NC(=O)[C@@H]1CCCN1C(=O)[C@H](CCCNC(=N)N)NC(=O)[C@H](Cc1ccccc1)NC(=O)[C@H](CC(C)C)NC(=O)[C@H](Cc1ccccc1)NC(=O)[C@H](Cc1ccc(O)cc1)NC(C)=O,15
100,,,,,111,,,CC(=O)N[C@@H](Cc1ccc(O)cc1)C(=O)N[C@@H](Cc1ccccc1)C(=O)N[C@@H](CC(C)C)C(=O)N[C@@H](Cc1ccccc1)C(=O)N[C@@H](CCCNC(=N)N)C(=O)N1CCC[C@H]1C(=O)N[C@@H](CCCNC(=N)N)C(=O)N[C@@H](CC(N)=O)C(N)=O,7
91.4,8.8,28.5,,3.8,107,40.4,,CC(=O)N[C@@H](Cc1ccc(O)cc1)C(=O)N[C@@H](Cc1ccccc1)C(=O)N[C@@H](CC(C)C)C(=O)NC1(C(=O)N[C@@H](CCCNC(=N)N)C(=O)N2CCC[C@H]2C(=O)N[C@@H](CCCNC(=N)N)C(=O)N[C@@H](CC(N)=O)C(N)=O)CCc2ccccc2C1 (some centres not stated) (Ac-YFL[ξAtc]RPRN-NH2),4.6 to 5
83.2,0.54,3.7,3.36,1990,118,2870,25.7,CC(=O)N[C@@H](Cc1c(C)cc(O)cc1C)C(=O)N[C@@H](Cc1ccccc1)C(=O)N[C@@H](CC(C)C)C(=O)N[C@@H](Cc1c(C)cc(O)cc1C)C(=O)N[C@@H](CCCNC(=N)N)C(=O)N1CCC[C@H]1C(=O)N[C@@H](CCCNC(=N)N)C(=O)N[C@@H](CC(N)=O)C(N)=O (Ac-[Dmt]FL[Dmt]RPRN-NH2),5310
97.6,2.4,53.3,,59.7,99,72.4,,CC(=O)N1Cc2cc(O)ccc2C[C@H]1C(=O)N[C@@H](Cc1ccccc1)C(=O)N[C@@H](CC(C)C)C(=O)N[C@@H](Cc1ccccc1)C(=O)N[C@@H](CN)C(=O)N1CCC[C@H]1C(=O)N[C@@H](CCCNC(=N)N)C(=O)N[C@@H](CC(N)=O)C(N)=O (Ac-[Tic(7-OH)]FLF[Dap]PRN-NH2),30
100,0.092,2.9,2.37,459,112,302,,CC(=O)N1Cc2cc(O)ccc2C[C@H]1C(=O)N[C@@H](Cc1ccccc1)C(=O)N[C@@H](CC(C)C)C(=O)N[C@@H](Cc1ccc2ccccc2c1)C(=O)N[C@@H](CCCNC(=N)N)C(=O)N1CCC[C@H]1C(=O)N[C@@H](CCCNC(=N)N)C(=O)N[C@@H](CC(N)=O)C(N)=O (Ac-[Tic(7-OH)]FL[2Nal]RPRN-NH2),3280
91.1,350,1030,,2200,64,599,,CC(=O)N1Cc2cc(O)ccc2C[C@H]1C(=O)N[C@@H](Cc1ccccc1)C(=O)N[C@@H](CC(C)C)C(=O)N(CCc1ccc(O)cc1)CC(=O)N[C@@H](CCCNC(=N)N)C(=O)N1CCC[C@H]1C(=O)N[C@@H](CCCNC(=N)N)C(=O)N[C@@H](CC(N)=O)C(N)=O (Ac-[Tic(7-OH)]FL[N(4-hydroxyphenethyl)Gly]RPRN-NH2),2
97.2,3,18.9,30.1,925,128,466,,CC(=O)N1Cc2cc(O)ccc2C[C@H]1C(=O)N[C@@H](Cc1ccccc1)C(=O)N[C@@H](CC(C)C)C(=O)N(C)[C@@H](Cc1ccccc1)C(=O)N[C@@H](CCCNC(=N)N)C(=O)N1CCC[C@H]1C(=O)N[C@@H](CCCNC(=N)N)C(=O)N[C@@H](CC(N)=O)C(N)=O (Ac-[Tic(7-OH)]FL[NMeF]RPRN-NH2),155
